{
  "source": "patent US8722729B2",
  "about": "“Unsaturated fatty acid monoesters and diesters on ascorbic acid and cosmetic uses thereof” (Pierre Fabre Dermo-Cosmetique, priority 2009, dated 2014)",
  "test_system": "Human dermal papilla cells",
  "assay": "In vitro stimulation of the proliferation of dermal papilla cells (BrdU incorporation)",
  "format": "cell-based",
  "conditions": "12.5 μM; 60 h; best activity",
  "description": "Human dermal papilla cells (Promocell) were placed in culture and held in early passage culture in DMEM medium supplemented with 10% FCS. They were then seeded in a 96-well plate in DMEM medium supplemented with 10% FCS for 12 h. The culture medium was replaced by serum-free DMEM medium then by DMEM supplemented with 1% FCS and molecules 1, 2, 3 and 4 at the different tested concentrations After incubation for 60 h, cell proliferation was evaluated by incorporation of BrdU.\nThe diagrams in appended FIG. 1 show the increase in BrdU incorporation and the stimulated cellular proliferation of the cells in the presence of the different molecules (as a percent of the control).",
  "data": [
    {"smiles": "CCCCC/C=C\\C/C=C\\CCCCCCCC(=O)OC1=C(OC(=O)CCCCCCC/C=C\\C/C=C\\CCCCC)C(C2COC(C)(C)O2)OC1=O", "note": "(stereo not shown) [Molecule 1, diactodeca-9,12-dienoate of (9Z,9′Z,12Z,12′Z)-2-(2,2-dimethyl-1,3-dioxolan-4-yl)-5-oxo-2,5-dihydrofuran-3,4-diyl]", "values": [
      {"measurement": "Proliferation of the cells of the dermal papilla (percent of the control)", "value": 169, "unit": "%"}
    ]}
  ]
}
